Source: PubChem BioAssay (NCI)
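Test compounds were applied to cells in 96-well plates for 48 hours at 5 doses. GI50 is the concentration that inhibits growth by half. TGI marks complete inhibition of growth.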

Tests used:
Assay in all cases: DTP human tumour cell line panel, 48 h
[1] = tested on: SW-620 colon
[2] = tested on: NCI-H522 lung
[3] = tested on: CCRF-CEM leukemia
[4] = tested on: UACC-62 melanoma
[5] = tested on: OVCAR-8 ovarian
[6] = tested on: OVCAR-4 ovarian
[7] = tested on: TK-10 renal
[8] = tested on: HCC-2998 colon
[9] = tested on: OVCAR-3 ovarian
[10] = tested on: UACC-257 melanoma
[11] = tested on: HL-60(TB) leukemia
[12] = tested on: MOLT-4 leukemia
[13] = tested on: SK-MEL-28 melanoma
[14] = tested on: A549 NSCLC
[15] = tested on: SF-268 CNS
[16] = tested on: IGROV1 ovarian
[17] = tested on: HCT-116 colon
[18] = tested on: SNB-19 CNS
[19] = tested on: HCT-15 colon
[20] = tested on: MDA-MB-435
[21] = tested on: DU-145 prostate
[22] = tested on: MALME-3M melanoma
[23] = tested on: NCI-H460 lung
[24] = tested on: HOP-62 NSCLC
[25] = tested on: OVCAR-5 ovarian
[26] = tested on: KM12 colon
[27] = tested on: MCF7 breast
[28] = tested on: NCI-H226 lung
[29] = tested on: PC-3 prostate
[30] = tested on: NCI/ADR-RES ovarian
[31] = tested on: RXF 393 renal
[32] = tested on: M14 melanoma
[33] = tested on: SK-OV-3 ovarian
[34] = tested on: EKVX NSCLC
[35] = tested on: CAKI-1 renal
[36] = tested on: NCI-H23 lung
[37] = tested on: T-47D breast
[38] = tested on: LOX IMVI melanoma
[39] = tested on: 786-0 renal
[40] = tested on: SK-MEL-2 melanoma
[41] = tested on: K-562 leukemia
[42] = tested on: SR leukemia
[43] = tested on: SNB-75 CNS
[44] = tested on: HS 578T breast
[45] = tested on: HT29 colon
[46] = tested on: SF-539 CNS
[47] = tested on: U251 CNS
[48] = tested on: RPMI-8226 leukemia
[49] = tested on: ACHN renal
[50] = tested on: HOP-92 NSCLC
[51] = tested on: SF-295 CNS
[52] = tested on: COLO 205 colon
[53] = tested on: SK-MEL-5 melanoma
[54] = tested on: MDA-MB-231 breast
[55] = tested on: A498 renal
[56] = tested on: UO-31 renal
[57] = tested on: SN12C renal
[58] = tested on: BT-549 breast

CSc1nc(N)cc(Oc2ccc(-c3nc(Nc4cccc(C(F)(F)F)c4)n[nH]3)cc2)n1
GI50 [1]: 0.478 µM
TGI [1]: 13.6 µM
GI50 [2]: 0.651 µM
TGI [2]: 4.06 µM
GI50 [3]: 0.773 µM
TGI [3]: > 43.5 µM
GI50 [4]: 0.474 µM
TGI [4]: 4.72 µM
GI50 [5]: 1.36 µM
TGI [5]: 10.3 µM
GI50 [6]: 2.06 µM
TGI [6]: 13.1 µM
GI50 [7]: 1.54 µM
TGI [7]: 7.73 µM
GI50 [8]: 1.33 µM
TGI [8]: 4.96 µM
GI50 [9]: 0.336 µM
TGI [9]: 1.22 µM
GI50 [10]: 0.776 µM
TGI [10]: 6.34 µM
GI50 [11]: 2.36 µM
TGI [11]: 9.23 µM
GI50 [12]: 1.25 µM
TGI [12]: > 38.4 µM
GI50 [13]: 1.46 µM
TGI [13]: 10.4 µM
GI50 [14]: 0.737 µM
TGI [14]: 9.51 µM
GI50 [15]: 0.894 µM
TGI [15]: 12.5 µM
GI50 [16]: 1.88 µM
TGI [16]: 18.3 µM
GI50 [17]: 0.456 µM
TGI [17]: 2.15 µM
GI50 [18]: 1.22 µM
TGI [18]: 14.9 µM
GI50 [19]: 0.531 µM
TGI [19]: 8.07 µM
GI50 [20]: 0.255 µM
TGI [20]: 0.744 µM
GI50 [21]: 1.28 µM
TGI [21]: 9.53 µM
GI50 [22]: 1.19 µM
TGI [22]: 8.42 µM
GI50 [23]: 0.44 µM
TGI [23]: 3.03 µM
GI50 [24]: 0.593 µM
TGI [24]: 4.99 µM
GI50 [25]: 2.38 µM
TGI [25]: 14.6 µM
GI50 [26]: 0.498 µM
TGI [26]: 4.46 µM
GI50 [27]: 0.357 µM
TGI [27]: 5.02 µM
GI50 [28]: 1.81 µM
TGI [28]: 7.69 µM
GI50 [29]: 1.13 µM
TGI [29]: 9.41 µM
GI50 [30]: 1.11 µM
TGI [30]: 7.45 µM
GI50 [31]: 0.504 µM
TGI [31]: 2.25 µM
GI50 [32]: 0.483 µM
TGI [32]: 3.85 µM
GI50 [33]: 0.516 µM
TGI [33]: 3.93 µM
GI50 [34]: 1.66 µM
TGI [34]: 10.1 µM
GI50 [35]: 0.64 µM
TGI [35]: 3.67 µM
GI50 [36]: 0.893 µM
TGI [36]: 10.2 µM
GI50 [37]: 0.81 µM
TGI [37]: 5.11 µM
GI50 [38]: 0.52 µM
TGI [38]: 2.05 µM
GI50 [39]: 1.28 µM
TGI [39]: 4.86 µM
GI50 [40]: 0.789 µM
TGI [40]: 6.06 µM
GI50 [41]: 0.522 µM
TGI [41]: > 35.3 µM
GI50 [42]: 0.354 µM
TGI [42]: > 100 µM
GI50 [43]: 0.371 µM
TGI [43]: 4.46 µM
GI50 [44]: 0.642 µM
TGI [44]: 9.29 µM
GI50 [45]: 0.432 µM
TGI [45]: 2.71 µM
GI50 [46]: 0.621 µM
TGI [46]: 4.19 µM
GI50 [47]: 0.548 µM
TGI [47]: 4.73 µM
GI50 [48]: 1.9 µM
TGI [48]: 12.6 µM
GI50 [49]: 0.873 µM
TGI [49]: 9.64 µM
GI50 [50]: 1.3 µM
TGI [50]: 6 µM
GI50 [51]: 0.784 µM
TGI [51]: 6.24 µM
GI50 [52]: 0.897 µM
TGI [52]: 4.05 µM
GI50 [53]: 0.416 µM
TGI [53]: 1.57 µM
GI50 [54]: 1.79 µM
TGI [54]: 8.63 µM
GI50 [55]: 0.486 µM
TGI [55]: 5.25 µM
GI50 [56]: 1.6 µM
TGI [56]: 11.3 µM
GI50 [57]: 1.15 µM
TGI [57]: 12.3 µM
GI50 [58]: 0.721 µM
TGI [58]: 6.82 µM
